Measurements from paper PMC4728560 (Scientific Reports, 2016).
“Also recorded” adds a separate entry of the source.

Tests used:
Bcl-xL [1] = experiment: In cellulo BRET between Luciferase-fused TCTP and YFP-fused Bcl-xL; format: cell-based; conditions: MCF-7 cells; donor Luciferase-fused TCTP, acceptor YFP-fused Bcl-xL
Description: See Supplementary Information for full details.
Twenty-four hours later, cells
Protein expression and purification

Bcl-xL [2] = molecular target: T1, Bcl-xL (Homo sapiens, UniProt Q07817, DEL27-82); experiment: Heterocomplex formation with Bcl-xL (native MS, SEC-MALS, gel filtration); format: binding; conditions: native MS: Bcl-xL(Δ27-81ΔCT), equimolar 100 μM, 30 °C, checked at 5 μM (for TCTP-R21A)
T1 construct: one containing the fragment 1-26, and the other the fragment 81-209; 6His (N, cleaved yes); made in house; host or cells: Escherichia coli BL21 (DE3) pRARE2
Method: When not specified, proteins tested for binding experiments were mixed at 100 μM, dialyzed against 10 mM CHES pH 9, 50 mM NaCl, 1 mM DTT or TCEP, depending on the analysis, and heated overnight at 30 °C.
For binding experiments, 100 to 200PL of protein mixture were loaded on a size exclusion chromatography (S200, GE Healthcare) column, while elution profiles were measured by UV absorption at 280 nm.
SEC-MALS experiments were performed on a multi-angle light scattering detector (miniDAWN TREOS, Wyatt Technologies) coupled in-line with SEC and an interferometric refractometer (Optilab T-rEX, Wyatt Technologies). See Supplementary Information for full details.
Prior to any mass spectrometry experiment, protein buffer was exchanged twice against a 50 mM ammonium acetate (NH4Ac) solution at pH 9.0 using microcentrifuge gel filtration columns (Zeba 0.5 ml, Thermo Scientific, Rockford, IL). Protein concentration was determined spectrophotometrically. […]
Supplementary Table 1. Measured molecular weights in denaturing conditions Sample Theoretical molecular Measured molecular Associated mass (Da) mass (Da) species […]
Gel filtration. For binding experiments, 100 to 200PL of protein mixture were loaded on a size exclusion chromatography (S200, GE Healthcare) column, while elution profiles were measured by UV absorption at 280nm. […]

T1 sequence (Q07817 with tags, fused parts or gaps DEL27-82): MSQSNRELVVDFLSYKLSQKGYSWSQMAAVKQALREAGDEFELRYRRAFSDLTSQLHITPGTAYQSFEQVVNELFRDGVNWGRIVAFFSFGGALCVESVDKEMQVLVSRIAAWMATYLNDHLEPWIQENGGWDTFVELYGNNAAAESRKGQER

- BRET signals with Bcl-xL (Bcl-xL [1]): saturable BRET signals
Substance: TCTP: Translationally Controlled Tumor Protein (TCTP/tpt1), recombinant full-length
- complex formation with Bcl-xL (Bcl-xL [2]): forms a heterotetramer with Bcl-xL; also recorded: forms heterotetrameric complexes with Bcl-xL
